The values below come from patent publication US8551978B2 (Theravance, Inc., priority 2009, dated 2013).

Structures can show the parent of a compound that is named as a salt. Where two headings read alike, the source gives them in different places.

The target of one assay is hM3 muscarinic receptor (Homo sapiens (Human), UniProt P20309). In words: Radioligand binding assay for muscarinic receptors ([3H]-NMS displacement, CHO cell membranes). As to the method: The cells were grown in a 5% CO2, 37° C. incubator and lifted with 2 mM EDTA in dPBS. Cells were collected by 5 minute centrifugation at 650×g, and cell pellets were either stored frozen at −80° C. or membranes were prepared immediately for use. For membrane preparation, cell pellets were resuspended in lysis buffer and homogenized with a Polytron PT-2100 tissue disrupter (Kinematica AG; 20 seconds×2 bursts). Crude membranes were centrifuged at 40,000×g for 15 minutes at 4° C. The membrane pellet was then resuspended with re-suspension buffer and homogenized again with the Polytron tissue disrupter. The protein concentration of the membrane suspension was determined by the method described in Lowry et al., 1951, […], 193, 265. All membranes were stored frozen in aliquots at −80° C. or used immediately. […] The membranes were briefly homogenized using a Polytron tissue disruptor (10 seconds) prior to assay plate addition. […] The test compounds were initially dissolved to a concentration of 400 μM in dilution buffer and then serially diluted 5× with dilution buffer to final concentrations ranging from 10 μM to […]. The order of addition and volumes added to the assay plates were as follows: 25 μL radioligand, 25 μL diluted test compound, and 50 μL membranes. Assay plates were incubated for 6 hours at 37° C. […] Filter plates were rinsed three times with wash buffer (10 mM HEPES) to remove unbound radioactivity. The plates were then air-dried and 50 μL Microscint-20 liquid scintillation fluid (PerkinElmer, Inc.) were added to each well. The plates were then counted in a PerkinElmer Topcount liquid scintillation counter (PerkinElmer, Inc.). Binding data were analyzed by nonlinear regression analysis with the GraphPad Prism Software package (GraphPad Software, Inc., San Diego, Calif.) using the one-site competition model. […] These summary statistics were then converted back to K; values for data reporting.
Sequence of hM3 muscarinic receptor (P20309 whole entry): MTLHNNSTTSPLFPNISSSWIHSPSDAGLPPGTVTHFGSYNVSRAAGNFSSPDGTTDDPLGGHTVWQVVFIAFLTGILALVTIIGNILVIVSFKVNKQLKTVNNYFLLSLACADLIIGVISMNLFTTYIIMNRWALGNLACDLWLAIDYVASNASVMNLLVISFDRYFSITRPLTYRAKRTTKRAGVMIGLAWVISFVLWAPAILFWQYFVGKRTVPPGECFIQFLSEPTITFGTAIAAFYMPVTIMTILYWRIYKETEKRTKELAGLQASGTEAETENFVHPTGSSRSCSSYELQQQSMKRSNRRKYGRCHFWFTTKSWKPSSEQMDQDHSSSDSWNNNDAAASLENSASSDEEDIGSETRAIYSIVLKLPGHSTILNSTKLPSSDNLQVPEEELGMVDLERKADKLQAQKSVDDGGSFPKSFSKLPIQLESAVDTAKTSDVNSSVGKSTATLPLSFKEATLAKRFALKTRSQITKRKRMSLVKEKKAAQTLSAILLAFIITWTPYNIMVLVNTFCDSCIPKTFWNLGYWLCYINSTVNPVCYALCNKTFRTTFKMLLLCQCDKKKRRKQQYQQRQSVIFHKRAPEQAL

The next assay addresses hβ2 adrenergic receptor (Homo sapiens (Human), UniProt P07550). Description: Assay for determining adrenergic receptor agonist potency (cAMP Flashplate, HEK-293 cells). The format is cell-based. Conditions: data rounded to nearest 1 nM. As to the method: The cell monolayer was lifted with 2 mM EDTA in PBS. Cells were pelleted by centrifugation at 1,000 rpm, and cell pellets were either stored frozen at −80° C. or membranes were prepared immediately for use. cAMP assays were performed in a radioimmunoassay format using the Flashplate Adenylyl Cyclase Activation Assay System with [^125I]-cAMP (NEN SMP004, PerkinElmer Life Sciences Inc., Boston, Mass.), according to the manufacturers instructions. […] Cells were rinsed with PBS and detached in dPBS (Dulbecco's Phosphate Buffered Saline, without CaCl2 and MgCl2) containing 2 mM EDTA or Trypsin-EDTA solution (0.05% trypsin/0.53 mM EDTA). After counting cells in Coulter cell counter, cells were pelleted by centrifugation at 1,000 rpm and re-suspended in stimulation buffer containing TBMX (PerkinElmer Kit) pre-warmed to room temperature to a concentration of 1.6×10^6 to 2.8×10^6 cells/mL. About 40,000 to 80,000 cells per well were used in this assay. […] Reactions were incubated for 10 min at 37° C. and stopped by adding 100 μL of cold detection buffer containing [^125I]-cAMP (NEN SMP004, PerkinElmer Life Sciences, Boston, Mass.). […] Data were analyzed by nonlinear regression analysis with the GraphPad Prism Software package (GraphPad Software, Inc., San Diego, Calif.) with the sigmoidal equation. The Cheng-Prusoff equation (Cheng Y, and Prusoff W H., Biochemical Pharmacology, 1973, 22, 23, 3099-108) was used to calculate the EC50 values.

For assay [1], the system named is MCh-induced bronchoconstriction. Description: Einthoven assay: bronchoprotection against methacholine (MCh)-induced bronchoconstriction. The format is in vivo, rat. Conditions: rat, 100 μg by inhalation, 24 h after administration. As to the method: This assay measures the ability of a test compound to provide bronchoprotection against methacholine (MCh)-induced bronchoconstriction in a rat. Male Sprague-Dawley rats (Harlan, Indianapolis, Ind.), weighing between 200 g and 350 g, were used for all studies. Test compound or vehicle (sterile deionized water) were dosed by inhalation (1H) over a 10 min period in a pie shaped inhalation chamber (R+S Molds, San Carlos, Calif.) using 5 mL of dosing solution. […] Rats were dosed with 100 μg of test compound unless otherwise indicated. At predetermined time points, rats were anesthetized with an intraperitoneal (IP) injection of 120 mg/kg inactin (thiobutabarbital). A supplemental dose (40 mg/kg, IP) was administered if the animal responded to physical stimuli (e.g. toe pinch). The surgical site was shaved and a 1-2 cm midline incision of the ventral aspect of the neck was made. The jugular vein was isolated and cannulated with a saline-filled polyethylene catheter (PE-50) to allow IV infusion of MCh. Trachea was dissected free and cannulated with a 14G needle (#NE-014, Small Parts, Miami Lakes, Fla.). After placement of the tracheal cannula, each rat was ventilated using a respirator (Model 683, Harvard Apparatus, Inc., MA) set at a stroke volume of 1 mL/100 g body weight (but not exceeding 2.5 mL volume) and a rate of 90 strokes per minute. A T-connector was placed along the respirator expiratory tubing to allow for measurement of changes in ventilation pressure (VP) using a Biopac transducer that was connected to a Biopac […]) pre-amplifier. Body temperature was maintained at 37° C. using a heating pad. Changes in VP were recorded using the Acknowledge Data Collection Software (Santa Barbara, Calif.). Baseline values were collected for at least 2.5 min. Rats were then challenged with non-cumulative intravenous (IV) infusions of 40 and 80 μg/kg MCh. MCh was infused intravenously for 2.5 minutes from a syringe pump (sp210iw, World Precision Instruments, Inc., Sarasota, Fla.) at a rate of 2 mL/kg/min, with a 2 minute interval between the two doses of MCh. Changes in ventilation pressure (cm H2O) in treated animals are expressed as % inhibition of MCh response relative to control animals. Other bronchoconstrictors, such as histamine and acetylcholine, can be used in place of MCh in this assay. Additionally, guinea pigs can be used instead of rats. […] Inhibition greater than or equal to 30 percent at 24 h is indicative of a long duration of action.

Setting [2] is: hM3 Muscarinic Receptor Binding, data rounded to nearest 0.1 nM.

Sequence of hβ2 adrenergic receptor (P07550 whole entry): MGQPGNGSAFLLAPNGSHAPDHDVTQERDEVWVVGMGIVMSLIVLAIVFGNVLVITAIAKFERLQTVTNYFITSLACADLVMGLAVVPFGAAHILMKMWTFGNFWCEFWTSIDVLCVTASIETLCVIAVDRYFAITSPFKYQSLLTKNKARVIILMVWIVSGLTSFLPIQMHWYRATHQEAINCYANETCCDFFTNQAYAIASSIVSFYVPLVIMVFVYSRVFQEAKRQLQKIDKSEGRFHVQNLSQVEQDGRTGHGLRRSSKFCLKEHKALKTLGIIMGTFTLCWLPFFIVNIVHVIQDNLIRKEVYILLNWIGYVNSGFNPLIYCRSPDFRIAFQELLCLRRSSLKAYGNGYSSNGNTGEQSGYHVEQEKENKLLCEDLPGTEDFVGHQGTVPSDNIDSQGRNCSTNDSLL

`CN(CCCC(=O)Nc1ccc(CNC[C@H](O)c2ccc(O)c3[nH]c(=O)ccc23)cc1)C(=O)CCN1CCC(OC(=O)Nc2ccccc2-c2ccccc2)CC1` [Compound I-1, Biphenyl-2-ylcarbamic Acid 1-(2-{[3-(4-{[(R)-2-Hydroxy-2-(8-hydroxy-2-oxo-1,2-dihydroquinolin-5-yl)ethylamino]methyl}-phenylcarbamoyl)propyl]methylcarbamoyl}ethyl)piperidin-4-yl Ester Ditrifluoroacetic Acid Salt] came in with a Ki on hM3 muscarinic receptor (setting [2]) of 0.1 nM. The compound further showed a concentration giving a half-maximal response (EC50) on hβ2 adrenergic receptor of 3 nM.

Regarding `COc1ccc(NC(=O)CCCN(C)C(=O)CCN2CCC(OC(=O)Nc3ccccc3-c3ccccc3)CC2)cc1CCNC[C@H](O)c1ccc(O)c2[nH]c(=O)ccc12` [Compound I-9], affinity on hM3 muscarinic receptor was put at a Ki of 0.1 nM. On hβ2 adrenergic receptor, the EC50 is 6 nM.

Take `CN(C(=O)CCN1CCC(OC(=O)Nc2ccccc2-c2ccccc2)CC1)c1cccc(C(=O)Nc2ccc(CNC[C@H](O)c3ccc(O)c4[nH]c(=O)ccc34)cc2)c1` [Compound I-25, Ditrifluoroacetic Acid]: affinity on hM3 muscarinic receptor was put at a Ki of 0.1 nM. The same compound displayed a concentration giving a half-maximal response (EC50) on hβ2 adrenergic receptor of 1 nM.

Take `Cc1ccc(C(=O)Nc2ccc(CCNC[C@H](O)c3ccc(O)c4[nH]c(=O)ccc34)cc2)cc1N(C)C(=O)CCN1CCC(OC(=O)Nc2ccccc2-c2ccccc2)CC1` [Compound I-35]: in assay [1], the “Broncho. at 24 h” value was “Yes (Bronchoprotective effect present at 24 h, e.g., ≧30% inhibition of the MCh response at 24 h in the rat Einthoven assay (100 μg))”.

The compound `Cc1ccc(C(=O)NCc2ccc(CC(C)NC[C@H](O)c3ccc(O)c4[nH]c(=O)ccc34)cc2)cc1N(C)C(=O)CCN1CCC(OC(=O)Nc2ccccc2-c2ccccc2)CC1` (stereo partly shown) [Compound I-47] yielded an inhibition constant Ki on hM3 muscarinic receptor (setting [2]) of 0.2 nM. At hβ2 adrenergic receptor, this compound gave an EC50 of 3 nM.

Consider `COc1ccc(CC(=O)Nc2cccc(N(C)C(=O)CCN3CCC(OC(=O)Nc4ccccc4-c4ccccc4)CC3)c2)cc1CC(C)NC[C@H](O)c1ccc(O)c2[nH]c(=O)ccc12` (stereo partly shown) [Compound I-54], for which, at hM3 muscarinic receptor (setting [2]), the Ki is 0.2 nM. This compound also returned an EC50 on hβ2 adrenergic receptor of 2 nM.

Compound `C[C@H](Cc1ccc(CCNC(=O)c2ccc(N(C)C(=O)CCN3CCC(OC(=O)Nc4ccccc4-c4ccccc4)CC3)cc2)cc1)NC[C@H](O)c1ccc(O)c2[nH]c(=O)ccc12` [Compound I-57] displayed a Ki at hM3 muscarinic receptor of 0.1 nM. Moreover, a half-maximal effect on hβ2 adrenergic receptor (EC50) was put at 1 nM.

For `C[C@@H](Cc1ccc(CCNC(=O)c2ccc(N(C)C(=O)CCN3CCC(OC(=O)Nc4ccccc4-c4ccccc4)CC3)cc2)cc1)NC[C@H](O)c1ccc(O)c2[nH]c(=O)ccc12` [Compound I-58], on hM3 muscarinic receptor, the affinity corresponds to a Ki of 0.2 nM. In addition, the midpoint of the response at hβ2 adrenergic receptor, the EC50, lay at 1 nM.

Consider `CN(C(=O)CCN1CCC(OC(=O)Nc2ccccc2-c2ccccc2)CC1)c1cccc(CC(=O)Nc2ccc(CNC[C@H](O)c3ccc(O)c4[nH]c(=O)ccc34)cc2)c1` [Compound I-59], for which affinity at hM3 muscarinic receptor was put at a Ki of 0.1 nM. The EC50 at hβ2 adrenergic receptor was 3 nM.

At hM3 muscarinic receptor, `Cc1cc(NC(=O)Cc2cccc(N(C)C(=O)CCN3CCC(OC(=O)Nc4ccccc4-c4ccccc4)CC3)c2)c(C)cc1CNC[C@H](O)c1ccc(O)c2[nH]c(=O)ccc12` [Compound I-60] registered a Ki of 0.1 nM. The midpoint of the response at hβ2 adrenergic receptor, the EC50, lay at 3 nM.

On hM3 muscarinic receptor, `CN(C(=O)CCN1CCC(OC(=O)Nc2ccccc2-c2ccccc2)CC1)c1cccc(CC(=O)Nc2ccc(CCNC[C@H](O)c3ccc(O)c4[nH]c(=O)ccc34)cc2)c1` [Compound I-63] yielded a Ki of 0.1 nM. For the same compound, at hβ2 adrenergic receptor, the 50% effective concentration (EC50) turned out to be 1 nM.

For the compound `Cc1ccc(CNC(=O)Cc2ccc(N(C)C(=O)CCN3CCC(OC(=O)Nc4ccccc4-c4ccccc4)CC3)cc2)cc1CC(C)NC[C@H](O)c1ccc(O)c2[nH]c(=O)ccc12` (stereo partly shown) [Compound I-70], the Ki on hM3 muscarinic receptor (setting [2]) worked out at 0.3 nM. The compound also registered an EC50 on hβ2 adrenergic receptor of 1 nM.

Turning to `Cc1c(CNC(=O)Cc2ccc(N(C)C(=O)CCN3CCC(OC(=O)Nc4ccccc4-c4ccccc4)CC3)cc2)cccc1CC(C)NC[C@H](O)c1ccc(O)c2[nH]c(=O)ccc12` (stereo partly shown) [Compound I-71], the Ki at hM3 muscarinic receptor is 0.1 nM. In addition, at hβ2 adrenergic receptor, the EC50 amounted to 1 nM.

As for `COc1ccc(CNC(=O)Cc2ccc(N(C)C(=O)CCN3CCC(OC(=O)Nc4ccccc4-c4ccccc4)CC3)cc2)cc1CC(C)NC[C@H](O)c1ccc(O)c2[nH]c(=O)ccc12` (stereo partly shown) [Compound I-72], the Ki on hM3 muscarinic receptor (setting [2]) was 0.4 nM. This compound registered an EC50 on hβ2 adrenergic receptor of 4 nM.

On hM3 muscarinic receptor (setting [2]), `CN(C(=O)CCN1CCC(OC(=O)Nc2ccccc2-c2ccccc2)CC1)c1ccc(CNC(=O)Cc2cccc(CNC[C@H](O)c3ccc(O)c4[nH]c(=O)ccc34)c2)cc1` [Compound I-74] showed a Ki of 0.3 nM. Besides, the EC50 on hβ2 adrenergic receptor is 2 nM.

On hM3 muscarinic receptor, `CN(C(=O)CCN1CCC(OC(=O)Nc2ccccc2-c2ccccc2)CC1)c1ccc(CNC(=O)Cc2ccc(CNC[C@H](O)c3ccc(O)c4[nH]c(=O)ccc34)cc2)cc1` [Compound I-75] registered a Ki of 0.2 nM. The compound further yielded an EC50 at hβ2 adrenergic receptor of 2 nM.

With `CN(C(=O)CCN1CCC(OC(=O)Nc2ccccc2-c2ccccc2)CC1)c1ccc(CNC(=O)Cc2cccc(CCNC[C@H](O)c3ccc(O)c4[nH]c(=O)ccc34)c2)cc1` [Compound I-76], the inhibition constant (Ki) on hM3 muscarinic receptor (setting [2]) was 0.3 nM. This compound also came in with an EC50 on hβ2 adrenergic receptor of 1 nM.

Turning to `CC(Cc1cc(CC(=O)NCc2ccc(N(C)C(=O)CCN3CCC(OC(=O)Nc4ccccc4-c4ccccc4)CC3)cc2)ccc1F)NC[C@H](O)c1ccc(O)c2[nH]c(=O)ccc12` (stereo partly shown) [Compound I-84], the inhibition constant (Ki) at hM3 muscarinic receptor (setting [2]) was determined as 0.1 nM. The compound further yielded a 50% effective concentration (EC50) on hβ2 adrenergic receptor of 1 nM.

For the compound `C[C@H](Cc1ccc(CCNC(=O)Cc2ccc(N(C)C(=O)CCN3CCC(OC(=O)Nc4ccccc4-c4ccccc4)CC3)cc2)cc1)NC[C@H](O)c1ccc(O)c2[nH]c(=O)ccc12` [Compound I-90], the inhibition constant Ki on hM3 muscarinic receptor turned out to be 0.1 nM. The same compound registered a half-maximal effective concentration (EC50) on hβ2 adrenergic receptor of 1 nM.

Compound `C[C@@H](Cc1cccc(CCC(=O)NCc2ccc(N(C)C(=O)CCN3CCC(OC(=O)Nc4ccccc4-c4ccccc4)CC3)cc2)c1)NC[C@H](O)c1ccc(O)c2[nH]c(=O)ccc12` [Compound I-93] returned an inhibitory constant (Ki) at hM3 muscarinic receptor of 0.8 nM. Also, at hβ2 adrenergic receptor, the half-maximal effective concentration (EC50) came out at 11 nM.

Compound `CN(C(=O)CCN1CCC(OC(=O)Nc2ccccc2-c2ccccc2)CC1)c1ccc(CNC(=O)CCc2cccc(CNC[C@H](O)c3ccc(O)c4[nH]c(=O)ccc34)c2)cc1` [Compound I-96] had a concentration for a half-maximal effect (EC50) on hβ2 adrenergic receptor of 3 nM.

Broadly, the Ki is a dissociation constant, usually derived from enzyme kinetics or from competition with a known ligand. Lower therefore signals a stronger hold on the target. The term EC50 denotes the concentration giving half of the maximal effect. A low value points to higher potency in that assay.
